In patent US20030216569A1, “Method of making HIV protease inhibitors” (priority 1993, published 2003):
Several values for one entry are separate records, joined by “and”; a condition that tells them apart may be missing. Identical values can stand only once. Like-named read-outs stand apart in the source and are kept apart here.

What was measured:
[1] = target: HIV-1 protease (Human immunodeficiency virus type 1 group M subtype B, UniProt P04585); experiment: Fluorescence HIV-1 Protease Inhibitor Assay (Pandex); format: biochemical; design: made in house; host or cells: E. coli K12 L507/pHP10D (NRRL B-18560)
[2] = test system: HIV-1 isolates IIIB and/or RF in CEM cells; experiment: SRI primary anti-HIV screen, MTT assay of inhibition of HIV-induced cell killing in CEM cells; format: cell-based; details: CEM cells
Experimental: (§1) A. Principle of MTT Assay:
This assay involves the conversion of the tetrazolium dye MTT to a colored formazan product by mitochondrial enzymes in metabolically active cells. This assay system is used at SRI to screen over 30,000 compounds per year. Briefly, the assay involves the infection of CEM or MT2 cells in round bottom 96-well plates. The compound of interest is added just prior to infection. Following 6 days of incubation at 37° C. the plates are stained with MTT. The results of the assay are quantitated spectrophotometrically on a Molecular Devices Vmax plate reader. The data are analyzed by linear regression utilizing an in-house software program to calculate antiviral activity (IC25, IC50, IC95) and toxicity (TC25, TC50, TC95) as well as other values.
(§2) Primary antiviral assays are routinely performed in CEM or MT-2 cells.
(§3) B. Standard Screening Assays in CEM and MT-2 Cells
(§4) 1. Compound dilution and delivery to the plates
(§5) Drugs are solubilized in the appropriate vehicle such as distilled water or DMSO if necessary. Latex gloves, lab coats and masks are used during all phases of the handling process to prevent exposure to potentially harmful agents. The drug is prepared at the appropriate concentration and stored at −20° C. until used by the screening laboratory. The first dilution of each compound is made in a dilution tube with medium to yield a concentration two-fold that of the highest test concentration. Sterile titer tubes are then used to make serial one half-log dilutions of each compound. Following drug dilution, the diluted compound is added to the appropriate well of a 96-well microtiter plate. Up to 12 dilutions can be assayed conveniently in triplicate on a single plate with all appropriate controls including cell control, virus control, toxicity control, drug color control, medium control and plastic (background) control. When testing includes only six dilutions, two drugs can be assayed on a single microtiter plate. The drugs are added to the plate in a final volume of 100 microliters.
(§6) During the time the drug dilutions are prepared, cells are washed and counted. Viability is monitored by trypan blue dye exclusion and assays are not performed if the viability falls below 90%. Cells are maintained in an exponential growth phase and are split 1:2 on the day prior to assay to assure exponential growth rate.
(§7) For the primary screen, the cell lines utilized are CEM and MT-2. Unless otherwise indicated, the medium used is RPMI 1640 with 10% heat-inactivated fetal calf serum (FBS), glutamine and antibiotics.
(§8) Cells are propagated at 37° C. in an atmosphere of 5% CO2 in air. The virus employed for this work is HIV-1 isolates IIIB and/or RF, which are prepared by an acute infection process.
(§9) Briefly, virus-infected cells are pelleted on a daily basis beginning at three days post-infection until the virus has killed all of the cells in the culture. Reverse transcriptase activity and p24 ELISA are used to identify pools with the greatest amout of virus.
(§10) These 24-hour harvests are pooled, filtered and frozen at −90° C. Prior to use in the assay, the infectious pool of virus is titered on all available cell lines in order to determine the amount of virus required in the antiviral assay.
(§11) In general, pools produced by the acute infection method require the addition of one microliter of infectious virus per well resulting in the screening of drugs at a multiplicity of infection of 0.01. In this manner, enough virus is prepared and frozen to complete over one thousand microtiter plates, allowing the testing of up to two thousand compounds from a single stock of infectious virus.
Virus infection of the CEM and MT-2 cells for the antiviral assay is carried out in a bulk infection process.

[3] = test system: HIV-1 isolates IIIB and/or RF in MT-2 cells; experiment: SRI primary anti-HIV screen, MTT assay of inhibition of HIV-induced cell killing in MT2 cells; format: cell-based; details: MT2 cells
Description: I. Primary Drug Screening of Anti-HIV Compounds at Southern Research Institute (SRI) (Results recorded in Table 1 are designated “SRI CEM (ng/ml)” or “SRI MT2 (ng/ml)”)
as §1
SRI has an established program for the primary antiviral analysis of compounds in microtiter assays which measures the ability of a selected compound to inhibit HIV-induced cell killing. This assay involves the conversion of the tetrazolium dye MTT to a colored formazan product by mitochondrial enzymes in metabolically active cells. This assay system is used at SRI to screen over 30,000 compounds per year. Briefly, the assay involves the infection of CEM or MT2 cells in round bottom 96-well plates. The compound of interest is added just prior to infection. Following 6 days of incubation at 37° C. the plates are stained with MTT. The results of the assay are quantitated spectrophotometrically on a Molecular Devices Vmax plate reader. The data are analyzed by linear regression utilizing an in-house software program to calculate antiviral activity (IC25, IC50, IC95) and toxicity (TC25, TC50, TC95) as well as other values.
as §2, §3, §4
as §5, with “Up to 12 dilutions can be assayed conveniently in triplicate on a single plate with all appropriate controls including cell control, virus control, toxicity control, drug color control, medium control and plastic (background) control.” left out
as §6, §7, §8, §9, §10
as §11, with “virus. The use of a single stock of virus for a long period of testing has very favorable effects on the repeatability of the assay systems. […]” for “virus.”

[4] = test system: Viral SN123 infected CEM cells; details: Human immunodeficiency virus 1, CCRF-CEM
Experimental: Purpose: To determine IC50 CC50 for compounds:
Media A [1% DMSO] (100 microliters DMSO+9.9 ml media A)
CEM cells @ [1×10^4] cells/ml (4 plate=40 ml) (6 plate=60 ml)
(need 70 microliters of each)
A-D at [10 mM] in 100% DMSO
4 or 6 u-bottom 96-well plates
4 flat bottom 96-well plates for dilutions
8-10 boxes of sterile costar tips
Approximately 10 reagent trays
1000 cells/well=1×10^4 cells/ml=1000 cells/100 microliters 200 microliters=total volume in a well
Cell Preparation and Plating of Cells, Media A and Media A (1% DMSO)
a. Number a 96-well tissue culture plate for each compound tested, one for a control plate, and one for the control compound.
b. Count cells on hemacytometer and resuspend them in 40 ml or 80 ml of Media A at a concentration of [1×10^4]0 cells/ml.
Counting Cells on a Hemacytomer:
Label two 1.8 ml nuc tubes 1 and 2.
Put 0.5 ml of well mixed CEM cells (in growth phase) in tube 1.
Put 50 micoliters PBS and 40 microliters of trypan blue into tube 2.
Mix up the cells in tube 1 then remove 10 microliters of cells and put them into tube 2.
Mix well in tube 2, then remove 10 microliters of the stained cells and put them on the hemacytometer.
Count the number of cells in the center square of the hemacytometer with the microscope set on 10×.
The concentration of the stock CEM's in cells/ml is as follows:
Cells counted×1×10^5=Concentration of CEM's in [cells/ml].
c. Add 200 microliters Media A to: A1 of places 2-6. These are Blanks. A4-H4 of plate 1. These are Blanks.
d. Add 5 microlicers Media A to all wells of Rows A-D of plates 2-6 except A1 (the top half of each plate).
e. Add 50 microliters of Media A to wells A1-D3 of Plate 1 (the top half of the plate).
f. Add 50 microliters Media A[l% DMSO] to all wells of Columns 1-3 of plate 1.
This puts 1000 cells/well.
h. Put plates in an incubator while doing drug dilutions.
Preparation Control and Test Drugs
(1) Put 60 microliters of DMSO into all wells of Columns 2-12, Rows A-E.
(3) Put 70 microliters of A [10 mM] at 100% DMSO into well B1.
(4) Put 70 microliters of B [10 mM] at 100% DMSO into well C1.
(5) Put 70 microliters of C [10 mM] at 100% DMSO into well D1.
(6) Put 70 microliters of D [10 mM] at 100% DMSO into well E1.
Change tips before each dilution.
(1) In rows A-E of another plate make a row for the first 1:10 dilution to correspond to each compound's 100% DMSO row.
A into Row B for the first 1:10 dilution.
B into Row C for the first 1:10 dilution.
C into Row D for the first 1:10 dilution.
D into Row E for the first 1:10 dilution.
(2) Put 180 microliters of media A into all wells of rows A-E corresponding to the 100% DMSO rows. 2.5 ml needed per row.
(3) Remove 20 microliters from all wells of each row of the 100% DMSO rows and transfer it to the corresponding 1:10 row.
(1) Make a plate for every 3 compounds to be tested.
Use 20 ml of media A per plate.
(3) Transfer 25 microliters of each compound from the row in the 1:10 dilution to the corresponding two rows on the 1:100 dilution plate changing tips before each transfer.
Addition of Viral SN123 to Plates
a. Thaw Sn123 in 37° C. water bath for approximately 10 minutes.
b. Dilute Sn123 1:16 by adding 1 ml of Sn123 to 15 ml of media A.
c. Add 50 microliters of Sn123 [1:16] to wells E1-H12 of plates 2-6 and to wells E1-H3 of plate 1.
Addition of Drugs to Plates
a. Add 50 microliters of the control and test drugs from the rows in the 1:100 dilution plates to the appropriate rows in the final plates (changing tips before each transfer). One row in the 1:100 plate will do 4 rows in the final plate. Leave A1 blank.
b. Incubate all plates 7 days at 37° C. 5% CO2.
c. Do Xtt protocol on day 7 as follows:
d. Preparation of Xtt/PMS Solution: (4 plate=20 ml) (6 plate=30 ml)
100 microliters [100 mM] PMS+4.9 ml PBS=PMS at [2 mM]
(2) Heat 500 ml of H2O in microwave for 5 minutes on high.
(3) Put 20 or 30 ml of phenol red RPMI in a 50 ml centrifuge tube.
(4) Put the RPMI in the beaker of hot water.
(5) Add 20 or 30 mg of XTT to the warmed up RPMI.

[5] = normalized to positive control (=1.0), * = a calculated average, read-out: Fluorescence Assay IC50 in ng/mL (converted)
[6] = value as run, 35B value of the same run in footnote or parentheses, read-out: Pandex IC50 ng/ml (converted)
[7] = normalized to positive control (=1.0), * = a calculated average
[8] = value as run, 35B value of the same run in footnote or parentheses
[9] = read-out: Whole cell IC50 nM, CEM cells, values in parentheses are 35B in same assay
[10] = read-out: Whole cell IC90 nM, CEM cells, values in parentheses are 35B in same assay

CC(C)(C)NC(=O)c1ccccc1C[C@@H](O)[C@@H](CSc1ccc2ccccc2c1)NC(=O)c1cccc(N)c1Cl [Example 44, [2′R-(2′R*,3′S*)]-N-t-Butyl-2-[2′-hydroxy-3′-naphth-2-ylthiomethyl-4′-aza-5′-oxo-5′-(2″-chloro-3″-aminophenyl)pentyl] benzamide]
melting point: 107 to 108 °C
IC50 [1, 5]: 121 nM

CC(C)(C)NC(=O)c1ccccc1C[C@@H](O)[C@@H](CSc1ccc2ccccc2c1)NC(=O)c1cccc2[nH]ccc12 [Example 62, [2′R-(2′R*,3′S*)]-N-t-Butyl-2-[2′-hydroxy-3′-naphth-2-ylthiomethyl-4′-aza-5′-oxo-5′-(indol-4″-yl)pentyl] benzamide]
melting point: 109 to 110 °C
IC50 [1, 5]: 350 nM

Cc1c(N)cccc1C(=O)NC(CSc1ccc2ccccc2c1)C(O)Cc1ccccc1C(=O)NC(C)(C)C (stereo not drawn) [Example 42, [2′R-(2′R*,3′S*)]-N-t-Butyl-2-[2′-hydroxy-3′-naphth-2-ylthiomethyl-4′-aza-5′-oxo-5′-(2″-methyl-3″-aminophenyl)pentyl] benzamide]
melting point: 105 to 106 °C
IC50 [1, 5]: 191 nM

CC(C)(C)NC(=O)c1ccccc1CC(O)C(CSc1ccc2ccccc2c1)NC(=O)c1cccc(N)c1Br (stereo not drawn) [Example 45, [2′R-(2′R*,3′S*)]-N-t-Butyl-2-[2′-hydroxy-3′-naphth-2-ylthiomethyl-4′-aza-5′-oxo-5′-(2″-bromo-3″-aminophenyl)pentyl] benzamide]
melting point: 110 to 112 °C
IC50 [1, 5]: 214 nM

Cc1ccc([N+](=O)[O-])cc1C(=O)NC(CSc1ccc2ccccc2c1)C(O)Cc1ccccc1C(=O)NC(C)(C)C (stereo not drawn) [Example 68, [2′R-(2′R*,3′S*)]-N-t-Butyl-2-[2′-hydroxy-3′-naphth-2-ylthiomethyl-4′-aza-5′-oxo-5′-(3″-nitro-6″-methylphenyl)pentyl] benzamide]
melting point: 85 to 88 °C
IC50 [1, 5]: 17100 nM

CC(C)(C)NC(=O)c1ccccc1CC(O)C(CSc1ccc2ccccc2c1)NC(=O)c1ccc(N)c(O)c1 (stereo not drawn) [Example 73, [2′R-(2′R*,3′S*)]-N-t-Butyl-2-[2′-hydroxy-3′-naphth-2-ylthiomethyl-4′-aza-5′-oxo-5′-(3″-hydroxy-4″-aminophenyl)pentyl] benzamide]
melting point: 119 to 122 °C
IC50 [1, 5]: 3480 nM

CC(C)(C)NC(=O)[C@@H]1C[C@@H]2SCC[C@@H]2CN1C[C@@H](O)[C@H](CSc1ccccc1)NC(=O)C1CCS(=O)(=O)C1 (relative stereo) [Example 89, [6S-(6R*, 3aS*, 7aR*, 2′S*, 3′S*)]-2-[2′-Hydroxy-3′-phenylthiomethyl-4′-aza-5′-oxo-5′-(tetrahydrothieno-3″-yl-1″,1″-dioxide)pentyl]-octahydrothieno[3,2-c]pyridine-6-N-t-butyl carboxamide]
CEM IC95 [2]: 98 nM
IC50 [1, 6]: 0.856 nM

CC(C)(C)NC(=O)C1CC2CCCCC2CN1CC(O)C(Cc1ccccc1)NC(=O)c1cccc(Cl)c1Cl (stereo not drawn) [Example 14, [3S-(3R*,4aR*,8aR*,2′S*,3′R*)]-2-[2′-Hydroxy-3′-phenylmethyl-4′-aza-5′-oxo-5′-(2″,3″-dichloro-phenyl)pentyl] decahydroisoquinoline-3-N-t-butylcarboxamide]
SRI MT2 IC50 [3]: 1.61 µg/mL and 1.29 µg/mL
Fluorescence Assay IC50 [1, 7]: 0.101 µg/mL
Pandex IC50 ng/ml [1, 8]: 48.7^d ng/ml

Cc1cnccc1C(=O)NC(CSc1ccccc1)C(O)CN1CCN(Cc2cccnc2)CC1C(=O)NC(C)(C)C (stereo not drawn) [Example 35, [2S-(2R*,2′S*,3′S*)]-1-[2′-Hydroxy-3′-phenylthiomethyl-4′-aza-5′-oxo-5′-(3″-methyl-pyrid-4″-yl)[pentyl]-4-(pyrid-3′″-ylmethyl)piperazine-2-N-t-butylcarboxamide]
SRI MT2 IC50 [3]: 0.519 µg/mL and 0.368 µg/mL
Fluorescence Assay IC50 [1, 7]: 0.0317 µg/mL
Pandex IC50 ng/ml [1, 8]: 73^c ng/ml

Cc1c(O)cccc1C(=O)N[C@@H](CSc1ccc(F)cc1)[C@H](O)CN1C[C@H]2CCCC[C@H]2C[C@H]1C(=O)NC(C)(C)C (relative stereo) [Example 92, [3S-(3R*, 4aR*, 8aR*, 2′S*, 3′R*)]-2-(2′-Hydroxy-3′-(4′″-fluoro)phenylthiomethyl-4′-aza-5′-oxo-5′-(2″-methyl-3″-hydroxyphenyl)pentyl]-decahydroisoquinoline-3-N-t-butyl carboxamide]
IC50 ([4]; read-out: Whole cell IC50 nM): 2.01 nM
IC90 ([4]; read-out: Whole cell IC90 nM): 57 nM
IC50 [1, 6]: < 0.273 nM

Cc1c(OP(=O)(O)O)cccc1C(=O)N[C@@H](Cc1ccccc1)[C@H](O)CN1C[C@H]2CCCC[C@H]2C[C@H]1C(=O)NC(C)(C)C (relative stereo) [Example 78, [3S-(3R*, 4aR*, 8aR*, 2′S*, 3′R*)]-2-[2′-Hydroxy-3′-phenylmethyl-4′-aza-5′-oxo-5′-(2″-methyl-3″-Hydroxyphenyl)pentyl]decahydroisoquinoline-3-N-t-butyl carboxamide 3″-dihydrogen phosphate]
IC50 [4, 9]: 8.64 nM
IC90 [4, 10]: 66.5 nM
SRI MT2 IC50 [3]: 0.08 µg/mL
IC50 [1, 6]: 3240 nM

Cc1cnccc1C(=O)NC(CSc1ccccc1)C(O)CN1CC2CCCCC2CC1C(=O)NC(C)(C)C (stereo not drawn) [Example 30, [3S-(3R*,4aR*,8aR*,2′S*,3′S*)]-2-[2′-Hydroxy-3′-phenylthiomethyl-4′-aza-5′-oxo-5′-(3″-methyl-pyrid-4″-yl)phentyl] decahydroisoquinoline-3-N-t-butylcarboxamide]
IC50 [4, 9]: 367 nM
IC90 [4, 10]: 736 nM
IC50 [1, 5]: 7.6 nM
IC50 [1, 6]: 9.05 nM
